Source: patent US4665083A, “Iminothiazolidine derivatives” (priority 1984, dated 1987)
Like-named read-outs stand apart in the source and are kept apart here.

Legend:
Tetrabenazine ptosis = assay: animal or person; format: in vivo; conditions: for Therapeutical index (tetrabenazine ptosis antagonism): LD50 and ED50 tetrabenazine ptosis, mice; for ED50: Mus musculus, po, read-out: Tetrabenazine ptosis antagonism ED50
Experimental: (2) Tetrabenazine ptosis antagonism on mice
The tetrabenazine ptosis antagonism of the compounds are tested on groups consisting of 10 mice each. […] 30 minutes after the introduction of the active agent or the vehicle, 50 mg/kg of tetrabenazine (3-isobutyl-9,10-[…]-1,2,3,4,6,7-hexahydrobenzo[a]quinolizine-2-one) are administered, intraperitoneally, and the animals with ptosis are counted 30, 60, 90 and 120 minutes after the administration of the tetrabenazine.
Evaluation: the average ptosis value is calculated in each group, and the deviation from the average obtained for the control group (inhibition) is given in percentage. From the data obtained ED50 values are calculated.

Reserpine ptosis = assay: animal or person; format: in vivo; conditions: for Therapeutical index (reserpine ptosis antagonism): LD50 and ED50 reserpine ptosis, mice; for ED50: Mus musculus, sc, 1 h, read-out: Reserpine ptosis antagonism ED50
Experimental: (3) Reserpine ptosis antagonism on mice
Each group consisting of 10 mice are treated with 6 mg/kg of reserpine, subcutaneously. […] The animals with ptosis are counted 60 and 120 minutes after the administration of the compounds to be tested. Evaluation is carried out as given under point (2) above.

yohimbine toxicity = assay: animal or person; format: in vivo; conditions: for Therapeutical index (potentiation of yohimbine toxicity): LD50 and ED50 yohimbine toxicity, mice; for ED50: Mus musculus, ip, read-out: Potentiation of yohimbine toxicity ED50
Experimental: (4) Yohimbine toxicity test on mice.
The examination is performed according to Quinton's method. Each group of animals consisting of 10 mice are treated with the compounds to be tested and the vehicle without active agent, respectively. After one hour a sublethal dosage of yohimbine in a volume of 20 ml/kg body weight is administered to the test groups, intraperitoneally. The number of the dead animals is recorded 1 and 24 hours after the administration of yohimbine.

acetic acid writhing = assay: animal or person; format: in vivo; conditions: for Therapeutical index (analgesic effect, writhing test): LD50 and ED50 writhing test, mice; for ED50: Mus musculus, ip, read-out: Analgesic effect (writhing test) ED50
Experimental: (9) Analgesic effect on mice (writhing test)
The test is carried out on mice according to the modified method of Newbould. 0.75 percent acetic acid is administered to the animals in a volume of 20 ml/kg, intraperitoneally, and the characteristic "writhing reactions" are counted for a period of 5 minutes, starting from the fifth minute after challenge. […] The inhibition relative to the control group is evaluated in percentage.

in vivo = conditions: mouse, mice, 7 days observation, Litchfield-Wilcoxon
Experimental: (1) Acute toxicity on mice
The acute toxicity is determined on mice of both sex (CFLP breed, body weight 18 to 22 g). For each dosis 6 animals are employed. The compounds tested are administered orally in a volume of 20 ml/kg body weight. After the administration the animals are observed for 7 days. During this period the animals are fed with standard mouse feed and water ad libitum. The toxicity values are determined according to Litchfield-Wilcoxon's method.

pentatetrazole spasm = assay: animal or person; format: in vivo; conditions: for Therapeutical index (inhibition of pentatetrazole spasm): LD50 and ED50 pentatetrazole spasm, mice; for ED50: Mus musculus, po, read-out: Inhibition of pentatetrazole spasm ED50
Experimental: (6) Inhibition of pentatetrazole spasm
The test is performed on mice according to a modified method of Banziger and Hane.

intestinal peristalsis = assay: animal or person; format: in vivo; conditions: for Therapeutical index (inhibition of intestinal peristalsis): LD50 and ED50 intestinal peristalsis, mice; for ED50: Mus musculus, po, read-out: Inhibition of intestinal peristalsis ED50
Experimental: (8) Antiperistaltic effect on mice
The antiperistaltic effect of the compounds is examined on mice weighing 20 to 25 g according to the method of Stickney and co-workers. Each dosis of the compound to be tested is administered, orally, 60 minutes prior to the administration of a 10 percent carbon suspension. […] 20 minutes after the administration of the carbon suspension, the animals are sacrificed, and the length of the entire small intestine as well as that of the small intestine filled with carbon are determined. The inhibition in relation to the control is calculated in percentage. […] From the values thus-transformed ED50 values are calculated.

nicotine lethality = assay: Inhibition of nicotine spasm / nicotine lethality; format: in vivo, mice; conditions: for Therapeutical index (inhibition of nicotine lethality): LD50 and ED50 nicotine lethality; for ED50: Mus musculus, read-out: Inhibition of nicotine lethality ED50
Experimental: (5) Inhibition of nicotine spasm
The test is carried out on mice according to Stone.

maximum electroshock = assay: animal or person; format: in vivo; conditions: Mus musculus, po, read-out: Inhibition of maximum electroshock ED50
Experimental: (7) Maximum inhibition of electroshock
The examination is carried out on mice weighing 20 to 25 g according to Swinyard. Electroshocks having the parameters of 50 Hz, 45 mA and 0.4 sec are employed by means of corneal electrodes. The complete inhibition of the tonic spasm of the lower limb extensor is taken as the criterium of the anticonvulsive action.

[1] = mice, oral, 1 hour before 1.4 mg/kg i.v. nicotine

Compound: CN(C)CCC=C1c2ccccc2CCc2ccccc21 [Amitriptylin, reference compound]
- Therapeutical index (tetrabenazine ptosis antagonism) (Tetrabenazine ptosis): 18.7
- ED50 (Tetrabenazine ptosis): 12 mg/kg
- Therapeutical index (reserpine ptosis antagonism) (Reserpine ptosis): 3.5
- ED50 (Reserpine ptosis): 65 mg/kg
- Therapeutical index (potentiation of yohimbine toxicity) (yohimbine toxicity): 18
- ED50 (yohimbine toxicity): 12.5 mg/kg

Compound: Cl.Cl.N=C1SCCN1c1cc(Cl)ccc1N [Compound 2, 3-(2-amino-5-chlorophenyl)-2-iminothiazolidine dihydrochloride]
- Therapeutical index (analgesic effect, writhing test) (acetic acid writhing): 18.6
- ED50 (acetic acid writhing): 43 mg/kg
- Therapeutical index (tetrabenazine ptosis antagonism) (Tetrabenazine ptosis): 32
- ED50 (Tetrabenazine ptosis): 25 mg/kg
- LD50 at 168 h (in vivo; po): 800 mg/kg
- Therapeutical index (inhibition of pentatetrazole spasm) (pentatetrazole spasm): 10.2
- ED50 (pentatetrazole spasm): 78 mg/kg
- Therapeutical index (potentiation of yohimbine toxicity) (yohimbine toxicity): 16
- ED50 (yohimbine toxicity): 50 mg/kg

Compound: N=C1SCCN1c1ccc(C(F)(F)F)cc1N [Compound 4 (diethanesulfonate)]
- Therapeutical index (analgesic effect, writhing test) (acetic acid writhing): 8.1
- ED50 (acetic acid writhing): 160 mg/kg
- Therapeutical index (inhibition of intestinal peristalsis) (intestinal peristalsis): 52
- ED50 (intestinal peristalsis): 25 mg/kg

Compound: Cl.N=C1SCCN1c1ccc(C(F)(F)F)cc1N [Compound 4, 3-(2-amino-4-trifluoromethylphenyl)-2-iminothiazolidine hydrochloride]
- Therapeutical index (tetrabenazine ptosis antagonism) (Tetrabenazine ptosis): 32.5
- ED50 (Tetrabenazine ptosis): 40 mg/kg
- Therapeutical index (inhibition of intestinal peristalsis) (intestinal peristalsis): 19.7
- ED50 (intestinal peristalsis): 66 mg/kg
- Therapeutical index (reserpine ptosis antagonism) (Reserpine ptosis): 38
- ED50 (Reserpine ptosis): 34 mg/kg
- LD50 at 168 h (in vivo; po): 1300 mg/kg
- Therapeutical index (inhibition of pentatetrazole spasm) (pentatetrazole spasm): 8.1
- ED50 (pentatetrazole spasm): 160 mg/kg

Compound: Cl.N=C1SCCN1c1ccc(Cl)cc1[N+](=O)[O-] [Compound 5, 3-(4-chloro-2-nitrophenyl)-2-iminothiazolidine hydrochloride]
- LD50 at 168 h (in vivo; po): 1100 mg/kg
- Therapeutical index (inhibition of pentatetrazole spasm) (pentatetrazole spasm): 16.6
- ED50 (pentatetrazole spasm): 66 mg/kg
- Therapeutical index (inhibition of nicotine lethality) (nicotine lethality; mice): 122
- ED50 (nicotine lethality; [1]): 9 mg/kg

Compound: Cl.N=C1SCCN1c1ccc(C(F)(F)F)cc1[N+](=O)[O-] [Compound 6, 3-(2-nitro-4-trifluoromethylphenyl)-2-iminothiazolidine hydrochloride]
- Therapeutical index (inhibition of intestinal peristalsis) (intestinal peristalsis): 100
- ED50 (intestinal peristalsis): 8 mg/kg
- LD50 at 168 h (in vivo; po): 800 mg/kg

Compound: CCS(=O)(=O)O.CCS(=O)(=O)O.COc1ccc(N2CCSC2=N)c(N)c1 [Compound 7 (diethanesulfonate), 2-imino-3-(2'-amino-4'-methoxyphenyl)-thiazolidine di(ethanesulfonate)]
- Therapeutical index (inhibition of intestinal peristalsis) (intestinal peristalsis): 10
- ED50 (intestinal peristalsis): 200 mg/kg
- LD50 at 168 h (in vivo; po): 2000 mg/kg

Compound: COc1ccc(N2CCSC2=N)c(N)c1.Cl.Cl [Compound 7, 3-(2-amino-4-methoxyphenyl)-2-iminothiazolidine dihydrochloride]
- Therapeutical index (tetrabenazine ptosis antagonism) (Tetrabenazine ptosis): 75
- ED50 (Tetrabenazine ptosis): 16 mg/kg
- LD50 at 168 h (in vivo; po): 1200 mg/kg

Compound: N=C1SCCN1c1cc(Cl)ccc1[N+](=O)[O-] [Compound 9, 3-(5-chloro-2-nitrophenyl)-2-iminothiazolidine]
- Therapeutical index (analgesic effect, writhing test) (acetic acid writhing): 13
- ED50 (acetic acid writhing): 54 mg/kg
- Therapeutical index (inhibition of intestinal peristalsis) (intestinal peristalsis): 38.9
- ED50 (intestinal peristalsis): 18 mg/kg
- LD50 at 168 h (in vivo; po): 700 mg/kg

Compound: N=C1SCCN1c1ccccc1[N+](=O)[O-] [Compound 10, 3-(2-nitrophenyl)-2-iminothiazolidine]
- Therapeutical index (analgesic effect, writhing test) (acetic acid writhing): 17.5
- ED50 (acetic acid writhing): 40 mg/kg
- Therapeutical index (inhibition of intestinal peristalsis) (intestinal peristalsis): 5
- ED50 (intestinal peristalsis): 140 mg/kg
- LD50 at 168 h (in vivo; po): 700 mg/kg
- Therapeutical index (inhibition of nicotine lethality) (nicotine lethality; mice): 24
- ED50 (nicotine lethality; po): 50 mg/kg

Compound: Br.COc1ccc(N2CCSC2=N)c([N+](=O)[O-])c1 [Compound 11, 3-(4-methoxy-2-nitrophenyl)-2-iminothiazolidine hydrobromide]
- Therapeutical index (tetrabenazine ptosis antagonism) (Tetrabenazine ptosis): 16.3
- ED50 (Tetrabenazine ptosis): 40 mg/kg
- Therapeutical index (inhibition of intestinal peristalsis) (intestinal peristalsis): 6.2
- ED50 (intestinal peristalsis): 105 mg/kg
- Therapeutical index (reserpine ptosis antagonism) (Reserpine ptosis): 16.3
- ED50 (Reserpine ptosis): 40 mg/kg
- LD50 at 168 h (in vivo; po): 650 mg/kg
- Therapeutical index (inhibition of pentatetrazole spasm) (pentatetrazole spasm): 19.11
- ED50 (pentatetrazole spasm): 34 mg/kg
- Therapeutical index (inhibition of nicotine lethality) (nicotine lethality; mice): 14.4
- ED50 (nicotine lethality; [1]): 45 mg/kg

Compound: Cc1ccc(N2CCSC2=N)c(N)c1 [Compound 13, 3-(2-amino-4-methylphenyl)-2-iminothiazolidine]
- Therapeutical index (analgesic effect, writhing test) (acetic acid writhing): 8.1
- ED50 (acetic acid writhing): 160 mg/kg
- Therapeutical index (reserpine ptosis antagonism) (Reserpine ptosis): 18.5
- ED50 (Reserpine ptosis): 70 mg/kg
- LD50 at 168 h (in vivo; po): 1300 mg/kg
- Therapeutical index (inhibition of nicotine lethality) (nicotine lethality; mice): 130
- ED50 (nicotine lethality; [1]): 10 mg/kg
- Therapeutical index (potentiation of yohimbine toxicity) (yohimbine toxicity): 25
- ED50 (yohimbine toxicity): 52 mg/kg

Compound: N=C1SCCN1c1ccc(N)cc1 [Compound 14, 3-(4-aminophenyl)-2-imino-1,3-thiazolidine]
- Therapeutical index (inhibition of intestinal peristalsis) (intestinal peristalsis): 4.4
- ED50 (intestinal peristalsis): 50 mg/kg
- LD50 at 168 h (in vivo; po): 400 mg/kg
- Therapeutical index (potentiation of yohimbine toxicity) (yohimbine toxicity): 20.0
- ED50 (yohimbine toxicity): 20 mg/kg

Compound: N=C1SCCN1c1ccc(N)cc1[N+](=O)[O-] [Compound 15, 3-(4-amino-2-nitrophenyl)-2-iminothiazolidine]
- Therapeutical index (analgesic effect, writhing test) (acetic acid writhing): 10.4
- ED50 (acetic acid writhing): 115 mg/kg
- Therapeutical index (inhibition of intestinal peristalsis) (intestinal peristalsis): 12
- ED50 (intestinal peristalsis): 130 mg/kg
- LD50 at 168 h (in vivo; po): 1200 mg/kg

Compound: COc1ccc(Cc2nccc3cc(OC)c(OC)cc23)cc1OC [Papaverine, reference compound]
- Therapeutical index (inhibition of intestinal peristalsis) (intestinal peristalsis): 2.01
- ED50 (intestinal peristalsis): 185 mg/kg
- LD50 at 168 h (in vivo; oral): 380 mg/kg

Compound: CC(=O)Nc1ccc(O)cc1 [Paracetamol, reference compound]
- ED50 (acetic acid writhing): 180 mg/kg

Compound: OC(CCN1CCCCC1)(c1ccccc1)C1CCCCC1 (centres unmarked) [Trihexyphenidyl, reference compound]
- ED50 (nicotine lethality; [1]): 40 mg/kg

Compound: CN1C(=O)OC(C)(C)C1=O [Trimethadion, reference compound]
- ED50 (maximum electroshock): 400 mg/kg
- LD50 at 168 h (in vivo; oral): 2050 mg/kg
- ED50 (pentatetrazole spasm): 490 mg/kg
